{
  "source": "BindingDB's records for patent US10766864",
  "about": "(Nektar Therapeutics, 2020)",
  "molecular_target": "Mu-type opioid receptor (Homo sapiens, UniProt P35372)",
  "sequence (P35372 whole entry)": "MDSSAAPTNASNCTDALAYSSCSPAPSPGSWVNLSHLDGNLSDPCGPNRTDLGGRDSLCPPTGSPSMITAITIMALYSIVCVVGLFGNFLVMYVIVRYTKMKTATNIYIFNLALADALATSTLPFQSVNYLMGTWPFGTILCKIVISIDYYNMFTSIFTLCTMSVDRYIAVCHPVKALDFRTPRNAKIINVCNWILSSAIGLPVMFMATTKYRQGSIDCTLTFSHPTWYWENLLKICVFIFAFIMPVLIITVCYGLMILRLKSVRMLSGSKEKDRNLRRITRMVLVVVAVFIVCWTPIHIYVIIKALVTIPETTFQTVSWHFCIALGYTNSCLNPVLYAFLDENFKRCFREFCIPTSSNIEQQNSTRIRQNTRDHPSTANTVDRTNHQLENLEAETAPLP",
  "test": "Receptor Binding Assay",
  "protocol": "Affinities of various compounds were measured in vitro using competitive radioligand binding assays. Serial dilutions of test compounds were incubated with membranes prepared from CHO-K1 cells expressing the mu opioid receptor (MOR; for opioid receptor binding) or rat forebrain membranes (for NMDA receptor binding). 2 nM [3H] Naloxone (MOR) or 0.2 nM [3H] MK801 (NMDA) were used as the specific, competitive radioligands. 10 uM Naloxone (MOR), or 10 uM MK801 (NMDA) was used to determine non-specific binding. Bound radioactivity was measured using a scintillation counter & IC50 values for test compounds were determined by non-linear regression analysis using a one-site competition model (Graph Pad Prizm). Due to each test compound being solubilized in a buffered system for the assay, the results presented herein reflect the free base activity.",
  "data": [
    {"compound": "COCCOCCN1CC[C@]23CCCC[C@H]2[C@H]1Cc1cc2sc(N)nc2cc13", "note": "[US10766864, Example 97]", "values": [
      {"measurement": "IC50", "result": "> 1000", "unit": "nM"}
    ]}
  ]
}
